Where two headings read alike, the source gives them in different places.
What was measured:
Type in all cases: cell-based
HUVEC cells = experiment: Inhibition of HUVEC proliferation (WST-1, Example 2); conditions: Homo sapiens
CaCo-2 cells = experiment: Inhibition of proliferation of CaCo-2 cells (WST-1, Example 8); conditions: Homo sapiens, 12 hours
Protocol: The effect of N,N,-diethyl-8,8-dipropyl-2-azaspiro[4,5]decane-2-propanamine dimaleate (Compound 1) and other analogs (structures shown in Table 7) on proliferation of CaCo-2, a human colon carcinoma cell line, were evaluated in the following manner. Cell proliferation was measured by WST-1 dye conversion to Formazan assay using a proliferation kit from BioVision, CA. The procedure used was essentially the same as described in the manufacture's instructions. Briefly, cells were grown for 7 days until they formed semi-confluent monolayers. On day 7, cells were trypsinized and re-suspended in 96-well plates at a concentration of approximately 50,000 cells/well. […] A solution of 10 μl of WST-1 dye per well was added and plates were read after 4 hours at 440 and 600 nm using an ELISA plate reader. The absorbance at 440-600 nm is directly proportion to the number of proliferating cells. All samples were measured in duplicate and results were expressed as an average of two determinations.

HUVEC = HUVEC cord formation assay (Matrigel); conditions: Homo sapiens, 24 hour incubation, read-out: IC50 Concentration, Cord Formation
Protocol: Matrigel (60 μl of 10 mg/ml; Collaborative Lab # 35423) was placed in each well of an ice-cold 96-well plate. The plate is allowed to sit at room temperature for 15 minutes then incubated at 37° C. for 30 minutes to permit the matrigel to polymerize. In the mean time, HUVEC are prepared in EGM-2 (Clonetic# CC3162) at a concentration of 2×10^5 cells/ml. Test solutions of Compound I are prepared at 2× the desired concentration (5 concentration levels) in the same medium. The cells (500 μl) and 2× Compound 1 (500 μl) solution are mixed and 200 μl of this suspension are placed in duplicate on the polymerized matrigel. After a 24 hour incubation, triplicate pictures are taken for each concentration using a Bioquant Image Analysis system. Drug effect (IC50) is assessed compared to untreated controls by measuring the length of cords formed and number of junctions, and is reported in Table 8.

LOX IMVI = experiment: NCI in vitro SRB assay, Melanoma; conditions: for GI50 / CC50: Homo sapiens
Protocol: (§1) An in vitro assay which tested the ability of N,N,-diethyl-8,8-dipropyl-2-azaspiro[4,5]decane-2-propanamine dimaleate (Compound 1) to inhibit the growth of known cancer cell lines was performed by the National Cancer Institute in accordance with standard procedures. See: Lin, Z. X., Hoult, J. R., and Raman, A. Sulphorhodamine B assay for measuring proliferation of a pigmented melanocyte cell line and its application to the evaluation of crude drugs used in the treatment of vitiligo. J Ethnopharmacol. 66: 141-150, 1999. Briefly, selected tumor cell lines were cultured in media containing five different concentrations of Compound 1. After 48 hours of continuous exposure, a sulforhodamine B (SRB) assay was used to estimate cell viability or growth via optical measurements.
(§2) From the measurements, the following values were determined: 1) the concentration of Compound 1 at which a tumor cell growth inhibition of 50% (relative to control) occurs (GI50), 2) the concentration of Compound 1 at which no growth occurs (total growth inhibition, TGI), and 3) the concentration of Compound 1 at which the […] (LC 50). […] FIG. 6 illustrates, graphically, tumor cell growth as a function of Compound 1 concentration of the scanned tumor cell lines.

M14 = experiment: NCI in vitro SRB assay, Melanoma; conditions: for CC50 / GI50: Homo sapiens
Protocol: as §1, §2

IGROV1 = experiment: NCI in vitro SRB assay, Ovarian Cancer
Protocol: as §1, §2

OVCAR-3 = experiment: NCI in vitro SRB assay, Ovarian Cancer
Protocol: as §1, §2

OVCAR-4 = experiment: NCI in vitro SRB assay, Ovarian Cancer
Protocol: as §1, §2

OVCAR-5 = experiment: NCI in vitro SRB assay, Ovarian Cancer
Protocol: as §1, §2

OVCAR-8 = experiment: NCI in vitro SRB assay, Ovarian Cancer
Protocol: as §1, §2

SK-OV-3 = experiment: NCI in vitro SRB assay, Ovarian Cancer
Protocol: as §1, §2

SMILES: CCCC1(CCC)CCC2(CCN(CCCN(CC)CC)C2)CC1.O=C(O)/C=C\C(=O)O.O=C(O)/C=C\C(=O)O [Compound 1, N,N,-diethyl-8,8-dipropyl-2-azaspiro[4,5]decane-2-propanamine dimaleate]
- IC50 (HUVEC cells): 1.25 to 2.5 µM
- inhibition at 5 µM (CaCo-2 cells; 5 μM, read-out: % Inhibition of Proliferation at 5 μM Compound): 85%
- IC50 (CaCo-2 cells): ~2.5 µM
- IC50 (HUVEC): 2.63 µM
- Log10 TGI (LOX IMVI): −5.74
- TGI (LOX IMVI): 1.84 µM
- GI50 (LOX IMVI; read-out: GI50): 0.515 µM
- CC50 (LOX IMVI; read-out: LC50): 4.29 µM
- GI50 (LOX IMVI; read-out: Log10 GI50 (converted)): 0.513 µM
- CC50 (LOX IMVI; read-out: Log10 LC50 (converted)): 4.27 µM
- Mean Optical Densities (LOX IMVI; Log10 conc -4.0 Moles/L): −0.030
- Percent Growth (LOX IMVI; Log10 conc -4.0 Moles/L): −100%
- Mean Optical Densities (LOX IMVI; Log10 conc -5.0 Moles/L): −0.044
- Percent Growth (LOX IMVI; Log10 conc -5.0 Moles/L): −100%
- Mean Optical Densities (LOX IMVI; Log10 conc -6.0 Moles/L): 0.595
- Percent Growth (LOX IMVI; Log10 conc -6.0 Moles/L): 36%
- Mean Optical Densities (LOX IMVI; Log10 conc -7.0 Moles/L): 1.037
- Percent Growth (LOX IMVI; Log10 conc -7.0 Moles/L): 85%
- Mean Optical Densities (LOX IMVI; Log10 conc -8.0 Moles/L): 1.072
- Percent Growth (LOX IMVI; Log10 conc -8.0 Moles/L): 89%
- CC50 (M14; M14, read-out: LC50): 1.8 µM
- CC50 (M14; M14, read-out: Log10 LC50 (converted)): 1.82 µM
- GI50 (M14; M14, read-out: GI50): 0.203 µM
- GI50 (M14; M14, read-out: Log10 GI50 (converted)): 0.204 µM
- Log10 TGI (M14; M14): −6.32
- TGI (M14; M14): 0.477 µM
- Mean Optical Densities (M14; M14, Log10 conc -4.0 Moles/L): 0.109
- Percent Growth (M14; M14, Log10 conc -4.0 Moles/L): −61%
- Mean Optical Densities (M14; M14, Log10 conc -5.0 Moles/L): 0.086
- Percent Growth (M14; M14, Log10 conc -5.0 Moles/L): −69%
- Mean Optical Densities (M14; M14, Log10 conc -6.0 Moles/L): 0.158
- Percent Growth (M14; M14, Log10 conc -6.0 Moles/L): −43%
- Mean Optical Densities (M14; M14, Log10 conc -7.0 Moles/L): 0.838
- Percent Growth (M14; M14, Log10 conc -7.0 Moles/L): 92%
- Mean Optical Densities (M14; M14, Log10 conc -8.0 Moles/L): 0.884
- Percent Growth (M14; M14, Log10 conc -8.0 Moles/L): 99%
- CC50 (IGROV1; Homo sapiens, IGROV-1, read-out: Log10 LC50 (converted)): > 100 µM
- GI50 (IGROV1; Homo sapiens, IGROV-1, IGROV1, read-out: Log10 GI50 (converted)): 2.45 µM
- Log10 TGI (IGROV1; IGROV1): >−4.00
- Log10 TGI (OVCAR-3): −5.21
- GI50 (OVCAR-3; Homo sapiens, read-out: Log10 GI50 (converted)): 2.34 µM
- CC50 (OVCAR-4; Homo sapiens, OVCAR-4, read-out: Log10 LC50 (converted)): 6.61 µM
- GI50 (OVCAR-4; Homo sapiens, OVCAR-4, read-out: Log10 GI50 (converted)): 1.62 µM
- Log10 TGI (OVCAR-4; OVCAR-4): −5.49
- CC50 (OVCAR-5; Homo sapiens, OVCAR-5, read-out: Log10 LC50 (converted)): 7.08 µM
- GI50 (OVCAR-5; Homo sapiens, OVCAR-5, read-out: Log10 GI50 (converted)): 2.4 µM
- Log10 TGI (OVCAR-5; OVCAR-5): −5.39
- CC50 (OVCAR-8; Homo sapiens, OVCAR-8, read-out: Log10 LC50 (converted)): > 100 µM
- GI50 (OVCAR-8; Homo sapiens, OVCAR-8, read-out: Log10 GI50 (converted)): 2.69 µM
- Log10 TGI (OVCAR-8; OVCAR-8): −4.92
- CC50 (SK-OV-3; Homo sapiens, SK-OV-3, read-out: Log10 LC50 (converted)): 58.9 µM
- GI50 (SK-OV-3; Homo sapiens, SK-OV-3, read-out: Log10 GI50 (converted)): 4.57 µM
- Log10 TGI (SK-OV-3; SK-OV-3): −5.10

— patent US20050250801A1, “Method of treating cancer with azaspirane compositions” (priority 2003, published 2005)
